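These data come from cells grown in 96-well plates and exposed to compound for 48 hours at five concentrations. Definition used: TGI = concentration required for complete inhibition of growth.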
Columns and labels:
Assay in all cases: DTP human tumour cell line panel, 48 h
[1] = system: 786-0 renal
[2] = system: SF-295 CNS
[3] = system: NCI/ADR-RES ovarian
[4] = system: HCT-15 colon
[5] = system: SNB-75 CNS
[6] = system: DU-145 prostate
[7] = system: ACHN renal
[8] = system: CAKI-1 renal
[9] = system: T-47D breast
[10] = system: NCI-H460 lung

Row | SMILES | TGI [1] [µM] | TGI [2] [µM] | TGI [3] [µM] | TGI [4] [µM] | TGI [5] [µM] | TGI [6] [µM] | TGI [7] [µM] | TGI [8] [µM] | TGI [9] [µM] | TGI [10] [µM]
1 | CCc1ccc2[nH]c(O)c(-c3[nH]c4ccccc4c3N=O)c2c1 | 18.9 | 20.5 | 48.8 | 15.1 | 28.9 | 22.5 | 14.7 | 19.8 | 32.8 | 21
2 | Nc1ccccc1N/C=C\C(=O)C(Cl)(Cl)Cl | 28.3 | 75.1 | > 100 | 46.1 | 72.2 | 75.1 | 35.1 | 51.3 | 43.1 | > 100
3 | Cc1ccc(N2CCc3c(C)c(C#N)c4nc5ccccc5n4c32)cc1 | > 100 | > 100 | > 100 | > 100 | 62 | > 100 | > 100 | > 100 |  | > 100
4 | CC(C)(C)C1(COC(=O)c2ccc(N)cc2)COC1 | > 100 | > 100 | > 100 | > 100 | > 100 | > 100 | > 100 | > 100 | > 100 | > 100
5 | CCCCc1ccc(Nc2ncc3[nH]cnc3n2)cc1 | 54.3 | 38 | 46 | 38.5 | 35.5 | 30.6 | 31.7 | 36.4 | 61 | 
6 | Cc1cn(CC2=NCC(C)(C)N2)c(=O)[nH]c1=O | > 100 | > 100 | > 100 | > 100 | > 100 | > 100 | > 100 |  | > 100 | > 100
7 | C=C(CC[C@@H](C(=O)O)[C@H]1[C@H](O)C[C@@]2(C)C3=CC[C@@H](C(=C)C)[C@](C)(CCC(=O)O)C3=CC[C@]12C)C(C)C | 31.1 | 31.4 | 42.3 | 31.4 | 36.5 | 38.9 | 31.4 | 28.9 | 50.7 | 34.7
8 | CCCNC(C#N)c1ccc(C(C#N)NCCC)cc1 (centres undefined) | > 100 | > 100 | > 100 | > 100 |  | > 100 | > 100 | > 100 | > 100 | > 100
9 | COc1ccc2c(c1)N=C1CSC(c3ccccc3Cl)N1C2 (centres undefined) | 31.6 | 42.4 | 72.3 | 87.8 | 40.6 |  | 41.8 | 24.6 | > 100 | 15.4
10 | CN(C)CCSC(=Nc1ccccc1)N1CCCCC1 | 30 | > 100 |  | 30 | 59.6 |  | 30.5 | > 100 |  | 33.8
11 | C1CCC(OC2CSC2)OC1 (centres undefined) |  | > 100 | > 100 | > 100 | > 100 | > 100 | > 100 |  | > 100 | > 100
12 | O=C1Nc2cc([N+](=O)[O-])ccc2NC1/C(=N\Nc1ccccc1)C(O)c1cccc([N+](=O)[O-])c1 (centres undefined) | > 100 | > 100 |  | 44.7 | > 100 |  | > 100 |  |  | > 100
13 | [N-]=[N+]=CC(=O)OCC1SCCCS1 | > 100 | > 100 |  | > 100 |  | > 100 | > 100 | > 100 |  | > 100
14 | O=c1[nH]nc(-c2ccccc2)n1/N=C/c1c(O)ccc2ccccc12 | > 100 | 82.4 | > 100 | > 100 | 93.6 | > 100 | > 100 |  |  | 
15 | CC(=O)O[C@]12CCCC1C1(O)C(O)CCCC12 (some centres undefined) | > 100 | > 100 |  | > 100 | > 100 |  | > 100 |  |  | > 100
16 | O=c1c(C=Nc2ccc([N+](=O)[O-])cc2)c(O)n(-c2ccccc2)c(=O)n1-c1ccccc1 | > 100 | > 100 | > 100 | > 100 | > 100 |  | > 100 | > 100 | > 100 | > 100
17 | Cc1cccc(C2=NC(C)(C)C(C)(C)N=C2c2cccc(C)n2)n1 | > 100 | > 100 |  | > 100 | > 100 |  | > 100 | > 100 |  | > 100
18 | Cc1nc2ccc(S(=O)(=O)O)cc2c(=O)n1-c1ccc(C(=O)NN2C(=O)C(Cl)C2c2ccccc2O)cc1 (centres undefined) | > 100 | > 100 | > 100 | > 100 | > 100 | > 100 | > 100 | > 100 | > 100 | 
19 | COc1cccc(Cc2c3cc(OC)ccc3cc[n+]2C)c1 | > 100 | > 100 |  | > 100 | > 100 |  | > 100 | > 100 |  | > 100
20 | N#Cc1c(N2CCCC2)ncn(Cc2ccccc2)c1=O | > 100 | > 100 | > 100 | > 100 | > 100 | > 100 | > 100 |  | > 100 | > 100
21 | O=C(N/N=C/c1cc(Cl)cc(Cl)c1[O-])c1ccccc1O.O=C(N/N=C/c1cc(Cl)cc(Cl)c1[O-])c1ccccc1O.[Ni+2] |  | 1.24 |  | 1.92 | 7.48 |  | 2.21 | 1.41 |  | 1.73
22 | COC(=O)/C=C1\CCC(C)(C(=O)NS(=O)(=O)c2ccc(C)cc2)C1(C)C (centres undefined) | > 100 | > 100 | > 100 | > 100 |  | > 100 | > 100 | > 100 | > 100 | > 100
23 | C=C(C)C(=O)[C@@]12C(=O)[C@@H](C)CC[C@H]1[C@H](C)C[C@@H]2C=C(C)C | 42.4 | > 100 | 83.5 | 73.5 | > 100 | > 100 | 25.6 | 99.5 |  | 
24 | O=C(c1ccccc1)c1ccc2nc(-c3c(Cl)c(Cl)c(Cl)c(Cl)c3C(=O)N/N=C/c3ccccc3)[nH]c2c1 | 73.7 | 88.7 | 80 | > 100 | 92.6 | > 100 | 49.2 | > 100 | 74.3 | 

— PubChem BioAssay (NCI)
